Assay [1] deals with A1 receptor. As to conditions: literature, in words; cited from earlier work.
Assay [2] concerns the target T1, adenosine A1 receptor (Rattus norvegicus, UniProt P25099).
T1 construct: from tissue
T1 sequence (P25099 1-326): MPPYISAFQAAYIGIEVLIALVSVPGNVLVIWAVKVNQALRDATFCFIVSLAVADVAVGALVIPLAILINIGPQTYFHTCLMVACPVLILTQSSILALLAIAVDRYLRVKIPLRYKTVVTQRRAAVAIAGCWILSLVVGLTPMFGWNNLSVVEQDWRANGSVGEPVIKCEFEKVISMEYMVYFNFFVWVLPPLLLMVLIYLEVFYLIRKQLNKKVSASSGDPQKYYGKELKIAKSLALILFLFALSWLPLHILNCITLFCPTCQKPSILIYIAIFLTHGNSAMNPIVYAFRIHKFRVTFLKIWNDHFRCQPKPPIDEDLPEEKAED
The assay is described as follows: In vitro binding to adenosine A1 receptor, radioligand [^3 H]-(R)-PIA. To be noted: single determinations only; for Ki: [^3 H]-(R)-PIA radioligand; for Ratio A2 /A1: ratio of A2 Ki to A1 Ki. An excerpt: (§1) Evaluation of in vitro binding to adenosine A1 and A2 receptors
(§2) The methods used are described fully in European Journal of Pharmacology, 1993, 242, 221-228.

Assay [3] addresses T2, A2 receptor (Rattus norvegicus, UniProt P30543).
T2 construct: from tissue
The assay is described as follows: In vitro binding to adenosine A2 receptor, radioligand [^3 H]-CGS 21680. As to conditions: [^3 H]-CGS 21680 radioligand; single determinations only.
From the text: as §1, §2

This is an account of results in patent publication US5683989A, “Treatment of ischemias by administration of 2,N^6 -substituted adenosines” (Novo Nordisk A/S, priority 1995, dated 1997).

The Ki is the equilibrium dissociation constant of an inhibitor or competing ligand from its target.

T2 sequence (P30543 whole entry): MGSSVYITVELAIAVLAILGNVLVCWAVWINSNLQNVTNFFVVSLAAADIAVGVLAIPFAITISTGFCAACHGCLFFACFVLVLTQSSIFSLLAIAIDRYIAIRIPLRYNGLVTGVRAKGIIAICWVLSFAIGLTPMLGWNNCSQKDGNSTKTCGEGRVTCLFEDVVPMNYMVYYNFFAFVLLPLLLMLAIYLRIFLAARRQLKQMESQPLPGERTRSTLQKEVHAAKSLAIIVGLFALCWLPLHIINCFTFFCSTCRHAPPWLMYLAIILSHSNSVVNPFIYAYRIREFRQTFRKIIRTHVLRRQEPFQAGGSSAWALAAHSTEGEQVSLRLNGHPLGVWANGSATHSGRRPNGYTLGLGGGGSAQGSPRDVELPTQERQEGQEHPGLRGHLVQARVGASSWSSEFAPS

For `OC[C@H]1O[C@@H](n2cnc3c(NC4CCCC4)nc(Cl)nc32)[C@H](O)[C@@H]1O` [CCPA, 2-chloro-N-cyclopentyladenosine], in assay [1], the “selectivity for the A1 receptor over the A2 receptor” value was “most selective for the A1 receptor over the A2 receptor”.

In the case of `Cc1nnc(SC[C@@H](C)Nc2nc(Cl)nc3c2ncn3[C@@H]2O[C@H](CO)[C@@H](O)[C@H]2O)s1` [Example 3, 2-Chloro-N-{(R)-1-[5-methyl-(1,3,4-thiadiazol-2-yl)]thio-2-propyl}adenosine], the Ki in assay [2] worked out at 9 nM; in assay [3], 990 nM. In addition, the “Ratio A2 /A1” value in assay [2] is 110.

Regarding `C[C@H](CSc1nc2ccccc2s1)Nc1nc(F)nc2c1ncn2[C@@H]1O[C@H](CO)[C@@H](O)[C@H]1O` [Example 13, N-[(R)-1-(2-Benzothiazolyl)thio-2-propyl]-2-fluoroadenosine], in assay [2], the Ki stood at 3.4 nM and the “Ratio A2 /A1” value was 756. Moreover, affinity in assay [3] was put at a Ki of 2570 nM.

For `CC[C@H](CSc1nc2ccccc2s1)Nc1nc(Cl)nc2c1ncn2[C@@H]1O[C@H](CO)[C@@H](O)[C@H]1O` [Example 15, N-[(R)-1-(2-Benzothiazolyl)thio-2-butyl]-2-chloroadenosine], in assay [2], the inhibitory constant (Ki) came to 7 nM and the “Ratio A2 /A1” value is listed as 136. In assay [3], this molecule displayed a Ki of 950 nM.

As to `C[C@H](CSc1nc2cc(Cl)ccc2s1)Nc1nc(Cl)nc2c1ncn2[C@@H]1O[C@H](CO)[C@@H](O)[C@H]1O` [Example 22, 2-Chloro-N-[(R)-1-(5-chloro-2-benzothiazolyl)thio-2-propyl]adenosine], in assay [2], the affinity corresponds to a Ki of 10 nM and the “Ratio A2 /A1” value is 100. Besides, the Ki in assay [3] came out at 1000 nM.

Turning to `C[C@H](CSc1cccs1)Nc1nc(Cl)nc2c1ncn2[C@@H]1O[C@H](CO)[C@@H](O)[C@H]1O` [Example 23, 2-Chloro-N-[(R)-1-(2-thienyl)thio-2-propyl]adenosine], in assay [2], the inhibition constant (Ki) is 4.5 nM and the “Ratio A2 /A1” value is recorded as 38. This molecule yielded a Ki in assay [3] of 170 nM.

`C[C@H](CSc1n[nH]c(-c2ccccc2)n1)Nc1nc(Cl)nc2c1ncn2[C@@H]1O[C@H](CO)[C@@H](O)[C@H]1O` [Example 27, 2-Chloro-N-{(R)-1-[5-phenyl-(1,2,4-triazol-3-yl)]thio-2-propyl}adenosine]: the Ki in assay [2] came out at 14 nM; in assay [3], 4970 nM. For the same molecule, the “Ratio A2 /A1” value in assay [2] is given as 355.
